Drawing on ChEMBL document CHEMBL1128876, “Nitrogen transfer in E. coli glucosamine-6P synthase. Investigations using substrate and bisubstrate analogs” (Bioorg Med Chem Lett, 1995), this text covers Ki for four molecules.

The Ki is the dissociation constant of the complex between target and ligand, obtained from inhibition or displacement. A higher Ki goes with a looser hold on the target.

Test [1] is described as follows: Tested for inhibition of glucosamine-6P synthase. Further details: species or system Escherichia coli.
Test [2] can be described thus: Tested for inhibition of fructose-6P synthase.

Take `O=C(O)C1CCC=N1` (racemic): the inhibition constant Ki in test [1] turned out to be 23 µM.

Consider `NC(CC1CCC(=O)C2OC12)C(=O)O` (centres undefined), for which the Ki in test [1] turned out to be 0.22 µM.

On to `NC(CO)C(O)C(O)C(O)COP(=O)(O)O` (centres undefined), for which the affinity in test [2] corresponds to a Ki of 25 µM.

With `NC(=O)/C=C/C(=O)NCC(N)C(=O)O` (centres undefined), in test [1], the Ki turned out to be 0.15 µM.
